{
  "source": "paper PMC13028883",
  "about": "(Pharmaceuticals, 2026)",
  "assay": "Pharmacokinetics of anthraquinones in plasma of cholestatic rats after oral DH, DH+MX or DHXSD",
  "assay_type": "in vivo, rat",
  "details": "oral DH 1.2 g/kg, mean ± SD, n = 6",
  "experimental": "Cholestasis was established in rats through a single oral dose of ANIT (60 mg/kg in olive oil). […] Sequential blood samples were obtained at 5, 15, 30 min, and 1, 2, 4, 6, 8, 12, 24, and 36 h after administration. Plasma was separated by centrifugation and deproteinized by adding a 3:1 (v/v) ratio of acetonitrile containing 5 ng/mL IS1. Ultra-performance liquid chromatography–tandem mass spectrometry analysis was performed on the supernatants following a centrifugation, employing the described analytical approach [29].\nPharmacokinetic parameters were calculated using Drug And Statistics software (version 3.0). Intergroup comparisons were performed by one-way ANOVA followed by Tukey’s post hoc test for multiple comparisons. A p-value < 0.05 was considered statistically significant.",
  "data": [
    {"smiles": "O=C1c2cccc(O)c2C(=O)c2c(O)cc(CO)cc21", "note": "[Aloe emodin, aloe emodin]", "values": [
      {"measurement": "t1/2", "result": "4.88 ± 0.97", "unit": "h"}
    ]}
  ]
}
